Experimental data taken from US8030294B2, “Compounds for the treatment of psychiatric or substance abuse disorders” (The McLean Hospital Corporation, priority 2000, dated 2011).

Tests used:
[1] = Forced swim test (FST), a rodent model of depression; type: in vivo; settings: rats, IP; for effect in the forced swim test: citicoline 50-500 mg/kg, molar equivalent cytidine 23.8-238 mg/kg, choline 13.7-136.6 mg/kg
Text: The effects of citicoline were examined in the forced swim test (FST), a rodent model of depression.

[2] = 17-item Hamilton Depression Rating Scale (HDRS) in depressed subjects; type: in vivo, human; settings: eight weeks, CDP-choline 6/12, fluoxetine 17/41
Description: In a second study, twelve depressed subjects (mean age 40) received 500 mg of an oral formulation of CDP-choline twice daily for eight weeks.

[3] = in vivo; cited from earlier work
brain phosphodiesters = assay: Phosphorus-31 MR spectroscopy of brain lipid metabolite resonances in healthy subjects; type: in vivo, human; settings: healthy subjects (mean age 70), 500 mg oral daily, 6 to 12 weeks; p=0.008
Description: To assess whether chronic CDP-choline administration leads to detectable changes in lipid metabolite resonances in phosphorus-31 MR spectra, eighteen healthy subjects (mean age: 70) were administered 500 mg of an oral formulation of CDP-choline daily for a six week period. From weeks 6 to 12, half of the subjects continued to receive CDP-choline and half received placebo in a double-blind fashion. […] CDP-choline administration, therefore, improves measures of verbal fluency and spatial memory in healthy adults and results in increased brain phospholipid synthesis in older adults, particularly during chronic administration.

[4] = cited from earlier work
[5] = cited from earlier work; remark: listed apart in the source
[6] = in vivo; cited from earlier work; remark: listed apart in the source
[7] = Continuous performance task (CPT), a measure of attention, in children with ADHD; type: in vivo, human; settings: ADHD boys (n=11), one week
Description: (§1) A new fMRI procedure (T2 relaxometry or “T2-RT”) was developed to indirectly assess blood volume in the striatum (caudate and putamen) of boys 6-12 years of age under steady-state conditions. Six healthy control boys (10.2±1.5 yr) and eleven boys diagnosed with ADHD (9.3±1.6 yr) served as subjects in the study to examine fMRI differences between unmedicated healthy controls and ADHD children on either placebo or the highest dose of methylphenidate. […] Activity and attention were evaluated in unmedicated healthy controls using the same procedure as children with ADHD, and fMRI followed within the same time frame.
(§2) Highly accurate laboratory-based measures of activity and attention were obtained by having the children perform a computerized vigilance test while an infrared motion analysis system captured and recorded movements (see Methods). […]
(§3) Assessment of Activity and Attention. […] In brief, children sat in front of a computer and were evaluated using a simple GO/NO-GO CPT in which the subject responds to visual presentation of a target and withholds response to a non-target stimuli that appear in the center of the screen at a fixed 2 second […] interval (Greenberg et al., Psychopharmacol. Bull. 23: 279-282,1987). […]

[8] = test system: regional blood volume in putamen, caudate and thalamus; assay: T2 relaxometry (T2-RT) fMRI in children with ADHD; type: in vivo, human; settings: ADHD boys, vs placebo; P>0.7
Description: A new fMRI procedure (T2 relaxometry or “T2-RT”) was developed to indirectly assess blood volume in the striatum (caudate and putamen) of boys 6-12 years of age under steady-state conditions. […] Children with ADHD were included if they met criteria for ADHD on structured diagnostic interview, and had at least 6 of 9 symptoms of inattention or hyperactivity-impulsivity. Children with ADHD took part in a triple blind (parent, child, rater), randomized, placebo-controlled study of effects of methylphenidate (0, 0.5, 0.8, 1.5 mg/kg in divided dose) on activity, attention, and fMRI. Children with ADHD were treated continuously for one week with placebo or a specific dose of methylphenidate and at the end of the week were tested for drug efficacy using objective measures of attention and activity and fMRI (See Methods) within 1-3 hours of their afternoon dose. The time between dose and testing was held constant for each subject throughout the four treatment conditions. Activity and attention were evaluated in unmedicated healthy controls using the same procedure as children with ADHD, and fMRI followed within the same time frame.
T2 relaxometry, a novel FMRI procedure, was used to derive steady state blood flow measures and to test for enduring medication effects. […]

[9] = Infrared motion analysis of activity during CPT in children with ADHD; type: in vivo, human; settings: ADHD boys (n=11) vs placebo; P<0.05
Description: as §1, §2, §3

SMILES: C[N+](C)(C)CCOP(=O)(O)OP(=O)([O-])OC[C@H]1O[C@@H](n2ccc(N)nc2=O)[C@H](O)[C@@H]1O [CDP-choline, cytidine 5′-diphosphocholine]
- effect in the forced swim test at high doses ([1]; high doses): small pro-depressant effects
- effect in the forced swim test [1]: did not have antidepressant effects
- complete responses (share of subjects) [2]: 50%
- tolerability in mammals [3]: well tolerated
- brain phosphodiesters (brain phosphodiesters): significant increase
- reported cases of overdoses ([4]; in vivo): no reported cases of overdoses
- symptoms on ingestion of large amounts ([4]; preclinical studies, salivation, lacrimation, urination, defecation, vomiting): common cholinergic symptoms
- conversion into the two major circulating metabolites, choline and cytidine ([5]; orally or intravenously): rapidly converted
- excretion via lung ([5]; share of dose): 12.9%
- excretion via urine ([5]; share of dose): 2.4%

SMILES: CN(CC(=O)O)C(=N)N [Creatine, creatine]
- tolerability in humans [6]: well tolerated at relatively high doses

SMILES: Nc1ccn([C@@H]2O[C@H](CO)[C@@H](O)[C@H]2O)c(=O)n1 [cytidine]
- effect in the forced swim test [1]: significant antidepressant effects

SMILES: CNCCC(Oc1ccc(C(F)(F)F)cc1)c1ccccc1 (centres unmarked) [fluoxetine]
- complete responses (share of subjects) [2]: 41%

SMILES: COC(=O)C(c1ccccc1)C1CCCCN1 (centres unmarked) [methylphenidate]
- CPT performance accuracy ([7]; highest dose vs placebo, P<0.05): enhancing performance accuracy
- response variability (S.D.) of CPT response latency ([7]; reduced from 242 on placebo, P<0.005): 149 ms
- T2-RT in thalamus [8]: not affected
- complexity of the movement pattern [9]: increasing the complexity of the movement pattern

SMILES: CC(=O)OC[C@H]1O[C@@H](n2ccc(=O)[nH]c2=O)[C@H](OC(C)=O)[C@@H]1OC(C)=O [triacetyl uridine]
- tolerability in mammals [3]: well tolerated

SMILES: O=c1ccn([C@@H]2O[C@H](CO)[C@@H](O)[C@H]2O)c(=O)[nH]1 [uridine]
- tolerability in humans [6]: well tolerated
- tolerability in mammals [3]: well tolerated
